# Active and inactive are the calls of the source.
# Legend:
# [1] = CRF-BP/CRF-R2 complex antagonists, dose response, cell-based, uHTS hits, 384-well (AID 651639); type: functional, Homo sapiens; conditions: read-out: IC50_Mean
# [2] = biological target: T1, Corticotropin-releasing factor receptor 2/Corticotropin-releasing factor-binding protein (Homo sapiens, UniProt P24387+Q13324); assay: Dose Response confirmation of uHTS hits for small molecule antagonists of the CRF-binding protein and CRF-R2 receptor complex.; type: functional; conditions: read-out: IC50_Mean
# T1 sequence (Q13324 whole entry): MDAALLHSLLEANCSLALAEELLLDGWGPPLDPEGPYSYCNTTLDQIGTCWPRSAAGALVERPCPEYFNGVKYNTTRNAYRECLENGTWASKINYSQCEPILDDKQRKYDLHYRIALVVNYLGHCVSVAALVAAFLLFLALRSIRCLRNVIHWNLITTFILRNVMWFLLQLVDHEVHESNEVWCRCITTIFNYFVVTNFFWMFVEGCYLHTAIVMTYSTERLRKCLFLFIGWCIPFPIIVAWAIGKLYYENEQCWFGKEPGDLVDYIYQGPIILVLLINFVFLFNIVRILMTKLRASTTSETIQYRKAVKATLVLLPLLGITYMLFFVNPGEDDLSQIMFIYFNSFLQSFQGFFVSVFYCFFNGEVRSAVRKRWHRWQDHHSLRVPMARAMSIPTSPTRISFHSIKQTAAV
# T1 sequence (P24387 whole entry): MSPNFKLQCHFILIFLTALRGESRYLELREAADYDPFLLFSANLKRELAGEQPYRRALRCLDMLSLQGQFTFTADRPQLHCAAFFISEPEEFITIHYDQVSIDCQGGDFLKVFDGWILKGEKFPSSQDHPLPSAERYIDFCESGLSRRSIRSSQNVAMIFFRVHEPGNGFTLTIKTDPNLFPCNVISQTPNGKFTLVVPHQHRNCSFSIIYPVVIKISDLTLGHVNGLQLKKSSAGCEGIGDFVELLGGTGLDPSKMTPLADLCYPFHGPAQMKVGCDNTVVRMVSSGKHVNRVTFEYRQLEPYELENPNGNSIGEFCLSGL
# [3] = biological target: T1, Corticotropin-releasing factor receptor 2/Corticotropin-releasing factor-binding protein; assay: activators of CRF receptor 2 with binding protein – uHTS hits, confirmation (AID 602473); type: functional; conditions: read-out: EC50_Mean
# Beta-galactosidase = Beta-galactosidase (Escherichia coli, UniProt Q8VNN2); assay: Dose response counterscreen for EBI2 assay utilizing the enzyme, b-galactosidase.; type: functional
# Chain of Beta-galactosidase (Q8VNN2 whole entry): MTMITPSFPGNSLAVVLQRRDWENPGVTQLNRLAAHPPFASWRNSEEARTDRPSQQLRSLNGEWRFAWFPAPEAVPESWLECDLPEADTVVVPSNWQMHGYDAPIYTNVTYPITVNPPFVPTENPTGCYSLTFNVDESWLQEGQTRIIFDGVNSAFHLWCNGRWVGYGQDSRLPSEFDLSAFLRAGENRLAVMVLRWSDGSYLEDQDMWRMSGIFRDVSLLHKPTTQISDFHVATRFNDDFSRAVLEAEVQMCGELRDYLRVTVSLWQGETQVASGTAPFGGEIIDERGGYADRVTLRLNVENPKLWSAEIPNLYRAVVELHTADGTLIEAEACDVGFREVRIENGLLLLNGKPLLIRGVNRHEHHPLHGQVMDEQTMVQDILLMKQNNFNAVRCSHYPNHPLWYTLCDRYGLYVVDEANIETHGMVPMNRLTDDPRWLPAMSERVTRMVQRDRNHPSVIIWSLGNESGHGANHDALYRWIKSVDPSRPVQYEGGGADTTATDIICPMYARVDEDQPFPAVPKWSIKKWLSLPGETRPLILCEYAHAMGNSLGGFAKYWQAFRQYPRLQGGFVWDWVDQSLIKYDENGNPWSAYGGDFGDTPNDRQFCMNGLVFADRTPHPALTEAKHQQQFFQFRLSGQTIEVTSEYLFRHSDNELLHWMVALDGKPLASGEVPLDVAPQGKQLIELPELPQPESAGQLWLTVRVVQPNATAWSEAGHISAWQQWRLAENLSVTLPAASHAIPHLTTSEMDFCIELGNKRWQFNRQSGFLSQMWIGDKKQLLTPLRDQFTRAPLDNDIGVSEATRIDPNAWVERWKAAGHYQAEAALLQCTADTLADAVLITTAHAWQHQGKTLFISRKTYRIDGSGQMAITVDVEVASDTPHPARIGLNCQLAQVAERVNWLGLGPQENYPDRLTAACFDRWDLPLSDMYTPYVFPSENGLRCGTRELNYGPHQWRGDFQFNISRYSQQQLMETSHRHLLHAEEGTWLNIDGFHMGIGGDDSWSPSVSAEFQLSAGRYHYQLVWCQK
# [4] = biological target: T2, Heat shock factor protein 1 (Mus musculus, UniProt P38532); assay: HSF1 potentiators in luciferase reporter cells, confirmation, cell-based, NIH3T3, luminescence, dose retest (AID 435004); type: functional;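 further: stress induced by proteasome inhibitor MG132 added 30 min after compound; luciferase reporter driven by HSF1 response element in NIH3T3 cells; actives raise luminescence as potentiators of the MG132 stress response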
# T2 sequence (P38532 whole entry): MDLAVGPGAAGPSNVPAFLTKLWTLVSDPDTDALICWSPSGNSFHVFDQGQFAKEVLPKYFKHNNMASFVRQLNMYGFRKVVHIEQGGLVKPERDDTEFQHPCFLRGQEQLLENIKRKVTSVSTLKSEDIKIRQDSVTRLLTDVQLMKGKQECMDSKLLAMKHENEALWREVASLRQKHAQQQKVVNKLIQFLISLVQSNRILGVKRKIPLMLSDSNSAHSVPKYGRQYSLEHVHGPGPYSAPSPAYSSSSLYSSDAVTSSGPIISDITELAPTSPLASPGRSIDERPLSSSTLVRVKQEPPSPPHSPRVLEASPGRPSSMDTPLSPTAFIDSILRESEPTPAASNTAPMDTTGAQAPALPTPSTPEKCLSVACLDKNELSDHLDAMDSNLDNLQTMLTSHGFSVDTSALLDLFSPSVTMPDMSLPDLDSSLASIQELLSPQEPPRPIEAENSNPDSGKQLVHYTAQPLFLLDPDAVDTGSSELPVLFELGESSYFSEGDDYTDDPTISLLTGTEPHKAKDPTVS
# [5] = biological target: Long-chain-fatty-acid--AMP ligase FadD28 (Mycobacterium tuberculosis, UniProt P9WQ59); assay: Fluorescence polarization aasay to screen for inhibitors that compete for the binding of FadD28 to a bisubstrate Measured in Biochemical System Using Plate Reader - 2147-01_Inhibitor_Dose_CherryPick_Activity.; type: functional, Mycobacterium tuberculosis H37Rv
# Chain of Long-chain-fatty-acid--AMP ligase FadD28 (P9WQ59 whole entry): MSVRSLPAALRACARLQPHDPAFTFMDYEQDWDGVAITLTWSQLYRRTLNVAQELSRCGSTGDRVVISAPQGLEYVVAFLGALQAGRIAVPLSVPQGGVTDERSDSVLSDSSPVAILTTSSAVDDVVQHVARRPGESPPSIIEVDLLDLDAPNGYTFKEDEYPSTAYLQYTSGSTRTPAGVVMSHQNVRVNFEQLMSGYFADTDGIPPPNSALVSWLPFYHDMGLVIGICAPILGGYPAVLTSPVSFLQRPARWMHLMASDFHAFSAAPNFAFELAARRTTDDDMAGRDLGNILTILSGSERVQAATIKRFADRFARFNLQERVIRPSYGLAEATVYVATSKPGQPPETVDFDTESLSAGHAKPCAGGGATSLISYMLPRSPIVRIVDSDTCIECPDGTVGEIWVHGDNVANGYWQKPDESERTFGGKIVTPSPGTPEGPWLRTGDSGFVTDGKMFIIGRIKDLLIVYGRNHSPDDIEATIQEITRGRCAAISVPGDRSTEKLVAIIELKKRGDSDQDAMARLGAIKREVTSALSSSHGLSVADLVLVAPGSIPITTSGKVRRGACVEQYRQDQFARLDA
# [6] = LGR2 antagonists, dose response, cell-based, HEK293, CRE-luciferase reporter, cherry pick, set 2 (AID 743343); type: functional;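 further: transfected cells were stimulated with diluted bursicon conditioned medium after compound addition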
# [7] = MC4R antagonists, dose response, counter-screen for LGR2 antagonist project, cell-based, plate reader, cherry pick (AID 743444); type: functional;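 further: transfected HEK 293 cells stimulated with alpha-MSH peptide; potency of inhibitors of the alpha-MSH evoked signal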
# [8] = HepG2 cell cytotoxicity, dose response, cytotoxicity control, plate reader, cherry-pick, antagonist series (AID 743416); type: functional, cell-based
# [9] = HEK293 cell cytotoxicity, dose response, cytotoxicity control, plate reader, cherry-picked samples (AID 743446); type: functional, cell-based
# [10] = A549 cell cytotoxicity, dose response, cytotoxicity control, plate reader, cherry-pick, antagonist series (AID 743412); type: functional, cell-based
# [11] = biological target: T2, Heat shock factor protein 1; assay: inhibition of MG132-induced HSE-luciferase signal, confirmation, cell-based, NIH3T3, luminescence, dose retest (AID 2382); type: functional;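 further: NIH3T3 fibroblasts with HSF1-driven luciferase reporter stressed by proteasome inhibitor MG132; luminescence from HSF1-driven luciferase expression after 8 hours of MG132 stress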
# [12] = biological target: Tyrosine-protein phosphatase non-receptor type 5 (Homo sapiens, UniProt P54829); assay: STEP phosphatase inhibitors, confirmation, biochemical, fluorescence intensity, uHTS hits (AID 602372); type: functional; conditions: read-out: IC50_Mean
# Chain of Tyrosine-protein phosphatase non-receptor type 5 (P54829 whole entry): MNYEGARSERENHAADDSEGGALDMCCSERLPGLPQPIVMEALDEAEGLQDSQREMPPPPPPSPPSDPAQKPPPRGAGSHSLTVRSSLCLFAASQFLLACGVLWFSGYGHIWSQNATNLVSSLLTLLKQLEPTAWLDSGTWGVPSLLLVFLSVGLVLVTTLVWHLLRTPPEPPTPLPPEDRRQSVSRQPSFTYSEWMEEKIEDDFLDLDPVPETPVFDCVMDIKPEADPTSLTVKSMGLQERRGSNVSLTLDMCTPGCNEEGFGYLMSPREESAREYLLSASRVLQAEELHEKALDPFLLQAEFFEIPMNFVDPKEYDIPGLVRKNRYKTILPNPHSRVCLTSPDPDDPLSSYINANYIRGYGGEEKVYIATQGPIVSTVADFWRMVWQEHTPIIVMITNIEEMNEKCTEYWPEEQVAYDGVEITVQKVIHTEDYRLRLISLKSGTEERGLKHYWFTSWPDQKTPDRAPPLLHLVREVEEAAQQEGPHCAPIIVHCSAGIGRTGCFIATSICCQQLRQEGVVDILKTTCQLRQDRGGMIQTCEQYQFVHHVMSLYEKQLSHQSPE
# [13] = biological target: T3, Tyrosine-protein phosphatase non-receptor type 22 (Homo sapiens, UniProt Q9Y2R2); assay: PTPN22 phosphatase inhibition, dose response, selectivity assay for STEP inhibitor project, biochemical (AID 624241); type: functional
# T3 sequence (Q9Y2R2 whole entry): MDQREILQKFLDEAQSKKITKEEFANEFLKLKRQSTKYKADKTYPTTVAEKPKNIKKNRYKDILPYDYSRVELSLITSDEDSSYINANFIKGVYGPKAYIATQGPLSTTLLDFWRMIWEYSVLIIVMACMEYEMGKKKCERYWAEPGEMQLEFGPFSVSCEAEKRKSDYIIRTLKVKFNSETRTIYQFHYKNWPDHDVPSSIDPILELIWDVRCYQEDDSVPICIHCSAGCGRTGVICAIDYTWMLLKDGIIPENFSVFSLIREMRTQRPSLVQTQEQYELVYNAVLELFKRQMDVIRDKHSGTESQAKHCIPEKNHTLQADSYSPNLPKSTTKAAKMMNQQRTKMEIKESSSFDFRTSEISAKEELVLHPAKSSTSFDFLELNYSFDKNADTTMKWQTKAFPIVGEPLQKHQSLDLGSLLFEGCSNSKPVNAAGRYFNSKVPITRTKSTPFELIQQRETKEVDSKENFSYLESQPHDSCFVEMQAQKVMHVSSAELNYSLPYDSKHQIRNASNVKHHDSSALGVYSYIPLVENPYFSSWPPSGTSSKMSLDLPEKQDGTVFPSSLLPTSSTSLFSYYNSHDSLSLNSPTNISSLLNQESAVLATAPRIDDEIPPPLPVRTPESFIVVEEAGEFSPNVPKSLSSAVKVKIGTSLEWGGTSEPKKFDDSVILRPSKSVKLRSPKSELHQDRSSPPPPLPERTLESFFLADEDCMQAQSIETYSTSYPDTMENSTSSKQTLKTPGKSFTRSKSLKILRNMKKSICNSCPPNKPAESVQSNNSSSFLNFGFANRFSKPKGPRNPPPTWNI
# [14] = biological target: Dual specificity protein phosphatase 3 (Homo sapiens, UniProt P51452); assay: VHR phosphatase inhibition, dose response, selectivity assay for STEP inhibitor project, biochemical (AID 602374); type: functional; conditions: read-out: IC50_Mean
# Chain of Dual specificity protein phosphatase 3 (P51452 whole entry): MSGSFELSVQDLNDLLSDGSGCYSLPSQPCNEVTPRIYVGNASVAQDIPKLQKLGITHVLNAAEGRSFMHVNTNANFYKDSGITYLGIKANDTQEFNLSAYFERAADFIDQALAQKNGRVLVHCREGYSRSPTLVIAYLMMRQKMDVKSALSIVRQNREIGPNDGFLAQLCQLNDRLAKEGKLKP
# [15] = biological target: Tyrosine-protein phosphatase non-receptor type 11 (Homo sapiens, UniProt Q06124); assay: SHP2 phosphatase inhibition, dose response, selectivity assay for STEP inhibitor project, biochemical (AID 602367); type: functional; conditions: read-out: IC50_Mean
# Chain of Tyrosine-protein phosphatase non-receptor type 11 (Q06124 whole entry): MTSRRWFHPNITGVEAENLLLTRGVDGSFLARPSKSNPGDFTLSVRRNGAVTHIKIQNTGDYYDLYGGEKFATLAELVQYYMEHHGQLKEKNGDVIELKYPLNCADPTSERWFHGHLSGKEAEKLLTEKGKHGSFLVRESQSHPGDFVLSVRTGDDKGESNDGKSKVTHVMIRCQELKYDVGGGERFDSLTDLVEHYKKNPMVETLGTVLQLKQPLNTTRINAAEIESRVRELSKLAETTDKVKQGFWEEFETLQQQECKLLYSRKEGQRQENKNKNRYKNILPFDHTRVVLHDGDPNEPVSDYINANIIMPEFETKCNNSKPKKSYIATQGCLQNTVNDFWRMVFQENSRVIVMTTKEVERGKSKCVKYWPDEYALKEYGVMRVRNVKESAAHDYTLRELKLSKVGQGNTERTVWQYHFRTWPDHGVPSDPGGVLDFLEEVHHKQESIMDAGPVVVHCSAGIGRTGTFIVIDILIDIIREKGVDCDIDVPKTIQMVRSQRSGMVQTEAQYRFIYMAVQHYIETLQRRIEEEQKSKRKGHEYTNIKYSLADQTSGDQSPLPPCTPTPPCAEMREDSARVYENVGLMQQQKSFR
# [16] = human group III sPLA2 inhibitors, dose response, biochemical, QFRET, IC50 (AID 743457);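 further: green fluorescence rise as the enzyme cleaves BODIPY PC-A2 in liposomes; potency for inhibition of the enzyme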
# [17] = biological target: T4, Probable nicotinate-nucleotide adenylyltransferase (Staphylococcus aureus (strain N315), UniProt P65502); type: functional, Staphylococcus aureus subsp. aureus N315; conditions: read-out: IC50_Mean;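 on IC50 Mean: confirmatory dose-response retesting of NadD inhibitor hits first found in an ultra-high-throughput screen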
# T4 sequence (P65502 whole entry): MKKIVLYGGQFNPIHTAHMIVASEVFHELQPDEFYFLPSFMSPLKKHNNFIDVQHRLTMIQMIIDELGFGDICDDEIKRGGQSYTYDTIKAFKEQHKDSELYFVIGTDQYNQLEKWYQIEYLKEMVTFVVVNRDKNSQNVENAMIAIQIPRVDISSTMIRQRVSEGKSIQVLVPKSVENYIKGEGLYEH
# [18] = biological target: T4, Probable nicotinate-nucleotide adenylyltransferase; type: functional, Staphylococcus aureus subsp. aureus N315
# [19] = biological target: T5, Small ubiquitin-related modifier 1 (Homo sapiens, UniProt P63165); assay: inhibitors of SUMO1 peptide binding, dose response, biochemical, fluorescence polarization, uHTS hits (AID 624382); type: functional; conditions: read-out: IC50_Mean
# T5 sequence (P63165 whole entry, the tested form may be a part): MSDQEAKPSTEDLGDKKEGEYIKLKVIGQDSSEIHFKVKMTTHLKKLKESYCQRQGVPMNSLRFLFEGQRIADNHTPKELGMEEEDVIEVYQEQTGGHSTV
# [20] = biological target: T6, Carboxy-terminal domain RNA polymerase II polypeptide A small phosphatase 1 (Homo sapiens, UniProt Q9GZU7); assay: inhibitors of CTDSP1, concentration-response testing, biochemical assay, absorbance-based, actives from ultra-high-throughput screening (AID 540297); type: functional
# T6 sequence (Q9GZU7 whole entry): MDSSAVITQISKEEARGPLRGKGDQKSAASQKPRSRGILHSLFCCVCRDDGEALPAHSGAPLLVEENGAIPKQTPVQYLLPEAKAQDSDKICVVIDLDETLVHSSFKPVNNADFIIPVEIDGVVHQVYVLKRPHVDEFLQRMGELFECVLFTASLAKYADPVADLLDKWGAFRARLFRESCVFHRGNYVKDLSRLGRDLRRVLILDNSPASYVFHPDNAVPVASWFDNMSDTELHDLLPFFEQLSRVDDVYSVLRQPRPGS
# [21] = biological target: T7, Low molecular weight phosphotyrosine protein phosphatase (Homo sapiens, UniProt P24666); type: functional; conditions: read-out: IC50_Mean
# T7 sequence (P24666 whole entry): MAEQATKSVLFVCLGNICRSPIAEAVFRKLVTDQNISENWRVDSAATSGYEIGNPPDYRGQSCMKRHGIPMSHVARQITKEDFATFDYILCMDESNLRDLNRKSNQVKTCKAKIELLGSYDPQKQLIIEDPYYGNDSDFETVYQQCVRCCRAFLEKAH
# [22] = biological target: T5, Small ubiquitin-related modifier 1; assay: inhibitors of SUMO1 partner interactions, dose response, biochemical, FRET (AID 624383); type: functional; conditions: read-out: IC50_Mean
# [23] = biological target: T7, Low molecular weight phosphotyrosine protein phosphatase; type: functional; conditions: read-out: IC50_Mean; remark: listed apart in the source
# INS1 = assay: beta cell apoptosis inhibitors, cytokine rescue, dose response, luminescence, retest (AID 449756); type: functional, cell-based; conditions: Rattus norvegicus;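 further: cell death triggered by IL-1 beta plus TNF-alpha plus IFN-gamma mixture; protective hits raise ATP signal compared with cytokine alone wells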
# [24] = Luminescence Cell-Based Dose Retest to Confirm Inhibitors of Cancer Stem Cells. [Related pubchem assays (depositor defined):AID2717, AID2721]; type: functional; conditions: Homo sapiens
# HEK293 = assay: inhibitors of LMP1-driven NF-kB reporter, dose response, cell-based, HEK293, luciferase, cherry-pick (AID 588343); type: functional; conditions: Homo sapiens
# [25] = IGROV1 ovarian cancer cell cytotoxicity, dose response, PAX8 inhibitor project, plate reader, dry powder samples (AID 743043); type: functional, cell-based; conditions: IGROV-1
# [26] = P. falciparum Dd2 growth inhibitors, dose response, SYBR Green, cherry-picked samples (AID 1159567); type: functional, cell-based
# Paired box protein Pax-8 = Paired box protein Pax-8 (Homo sapiens, UniProt Q06710); assay: inhibitors of PAX8-driven TPO luciferase reporter, dose response, RMG-I cells, cherry-pick (AID 687027); type: functional, cell-based;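 further: luciferase reporter driven by Pax8 target thyroperoxidase promoter measured by SteadyGlo luminescence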
# Chain of Paired box protein Pax-8 (Q06710 whole entry): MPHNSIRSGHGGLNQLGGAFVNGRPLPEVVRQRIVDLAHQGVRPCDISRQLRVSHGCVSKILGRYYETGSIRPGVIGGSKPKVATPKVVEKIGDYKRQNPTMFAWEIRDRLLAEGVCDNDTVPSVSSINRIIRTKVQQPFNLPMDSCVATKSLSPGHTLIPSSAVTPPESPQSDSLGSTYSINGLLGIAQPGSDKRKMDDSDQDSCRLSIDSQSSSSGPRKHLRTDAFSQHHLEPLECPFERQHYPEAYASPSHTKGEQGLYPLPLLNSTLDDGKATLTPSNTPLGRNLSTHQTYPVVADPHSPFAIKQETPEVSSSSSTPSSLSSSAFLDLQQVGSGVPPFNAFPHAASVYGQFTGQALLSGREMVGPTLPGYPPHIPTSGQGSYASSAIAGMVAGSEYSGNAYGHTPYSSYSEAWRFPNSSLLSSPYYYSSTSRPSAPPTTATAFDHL
# [27] = HepG2 cell cytotoxicity, dose response, cytotoxicity control, cherry-picked samples (AID 1159577); type: functional, cell-based
smiles,measurement,setting,value
COC(=O)CSC1=C(C#N)C(c2ccc(Cl)cc2)C(C(=O)OC)C(=O)N1 (centres undefined),IC50,[1],13.4 µM (active)
same,IC50,[2],24 µM (active)
same,EC50,[3],> 53 µM (inactive)
CCn1cc(C(=O)NN)c(=O)c2cc(F)c(NC3CCCCC3)cc21,IC50,Beta-galactosidase,> 80 µM (inactive)
same,EC50,[4],> 260 µM (inactive)
CCn1c(C)cc(/C=C2\NC(=O)N(CC(=O)Nc3cccc(C)c3)C2=O)c1C,AC50,[5],77.2 µM (active)
O=C(NC(=S)Nc1c(Cl)ccc2nsnc12)c1ccccc1F,IC50,[1],> 20 µM (inactive)
same,IC50,[2],2.88 µM (active)
same,EC50,[3],> 53 µM (inactive)
O=C(O)c1ccc2nc(-c3ccccc3)sc2c1,AC50,[6],3.7 µM (active)
same,AC50,[7],3.35 µM (active)
same,AC50,[8],> 52 µM (inactive)
same,AC50,[9],> 52 µM (inactive)
same,AC50,[10],> 52 µM (inactive)
same,EC50,[11],5.85 µM (active)
COc1ccc(Cl)cc1N=C(S)N(CCCN1CCOCC1)Cc1cn(C)c2ccccc12,IC50,[12],13.9 µM (active)
same,IC50,[13],38.5 µM (inactive)
same,IC50,[14],0.754 µM (active)
same,IC50,[15],2.07 µM (active)
O=C(NN=C(S)Nc1ccc(F)cc1)[C@H]1C[C@@H]1c1ccccc1,IC50,[16],> 122 µM (inactive)
NC(CSC1(c2ccc(Cl)cc2)c2ccccc2-c2ccccc21)C(=O)O (centres undefined),IC50,[17],34.2 µM (active)
same,IC50,[18],11.7 µM (active)
Cc1cc(C(=O)N/N=C/c2ccc(-c3ccc([N+](=O)[O-])cc3Cl)o2)[nH]n1,IC50,[19],> 66.6 µM (inactive)
same,IC50,[12],6.83 µM (active)
same,IC50,[13],> 100 µM (inactive)
same,IC50,[20],7.05 µM (active)
same,IC50,[21],> 80 µM (inactive)
same,IC50,[22],13.8 µM (active)
same,IC50,[23],19 µM (active)
same,IC50,[14],1.36 µM (active)
same,IC50,[15],3.42 µM (active)
Cc1cc(C)nc(SCc2ccc(C(=O)N/N=C/c3cccc(O)c3O)cc2)n1,IC50,[16],> 122 µM (inactive)
same,AC50,INS1,2.22 µM (active)
same,AC50,[24],3.83 µM (active)
same,AC50,HEK293,9.36 µM (active)
C[C@@H]1CN([C@@H](C)CO)C(=O)Cc2cc(NC(=O)Nc3ccccc3)ccc2O[C@H]1CN(C)Cc1ccc(Oc2ccccc2)cc1,AC50,[25],55.6 µM (active)
same,AC50,[26],1.05 µM (active)
same,AC50,Paired box protein Pax-8,9.84 µM (active)
same,AC50,[27],12.9 µM (active)
